Test results: patent publication US7824698B2, “Lyophilized formulations of Salinosporamide A” (Nereus Pharmaceuticals, Inc., priority 2007, dated 2010)
Values after ≈ are worked out from the molar mass of the structure shown.

Tests used:
[1] = Chemical stability of the API
[2] = Salinosporamide A in-situ phase solubility and stability in H2O-TBA; format: physicochemical; details: for HPLC Assay (% Purity): room temp.
Procedure: Salinosporamide A in-situ phase solubility and stability were determined in 10, 20 and 30% H2O-TBA (v/v) solutions. Salinosporamide A was prepared at 2 mg/mL in TBA as a stock solution. HPLC water was spiked into the Salinosporamide A solution aliquot to make up the equivalent 10, 20 and 30% H2O-TBA solutions at room temperature. Each drug solution was mixed and immediately filtered. The filtrate was collected as time zero sample and analyzed by HPLC at real time to avoid drug degradation. The filtrate was subsequently sampled and filtered at 4, 24 and 48 hr to monitor drug stability at ambient room temperature.

[3] = Solubility and stability in tert-butanol and Kollidon-TBA vehicles by HPLC; format: physicochemical
Procedure: Salinosporamide A solubility was determined in 100% tert-butanol (TBA) and in TBA containing 3% (w/v) Kollidon 12 PF and 3% (w/v) Kollidon 17 PF, respectively. Both Kollidons can dissolve in TBA at approximately 4% (w/v). 3% Kollidon can serve as the bulking agent to support a lyophilization preparation. Salinosporamide A was added and saturated in the vehicles at ambient room temperature overnight. Salinosporamide A solutions were filtered and analyzed by HPLC to determine the solubility.

C[C@@]12OC(=O)[C@]1([C@@H](O)[C@@H]1C=CCCC1)NC(=O)[C@@H]2CCCl [Salinosporamide A]
stability in aqueous solution ([1]; neutral and basic pH values): labile
time API is stable ([1]; stored at −20° C. desiccated): at least 12 months
bulk solution stability ([2]; 1 mg/mL in 10-30% H2O-TBA co-solvent systems, room temperature): stable
HPLC Assay (% Purity) ([2]; 10% H2O-TBA, 0 hr): 100.0%
HPLC Assay (% Purity) ([2]; 10% H2O-TBA, 4 hr): 99.5%
HPLC Assay (% Purity) ([2]; 10% H2O-TBA, 24 hr): 99.8%
HPLC Assay (% Purity) ([2]; 10% H2O-TBA, 48 hr): 99.7%
HPLC Assay (% Purity) ([2]; 20% H2O-TBA, 0 hr): 100.0%
HPLC Assay (% Purity) ([2]; 20% H2O-TBA, 4 hr): 99.8%
HPLC Assay (% Purity) ([2]; 20% H2O-TBA, 24 hr): 99.8%
HPLC Assay (% Purity) ([2]; 20% H2O-TBA, 48 hr): 99.7%
HPLC Assay (% Purity) ([2]; 30% H2O-TBA, 0 hr): 100.0%
HPLC Assay (% Purity) ([2]; 30% H2O-TBA, 4 hr): 99.8%
HPLC Assay (% Purity) ([2]; 30% H2O-TBA, 24 hr): 99.5%
HPLC Assay (% Purity) ([2]; 30% H2O-TBA, 48 hr): 99.3%
solubility ([3]; 3% Kollidon 12 PF-TBA): 4900 µg/mL (≈ 15.6 mM)
stability in solution ([3]; 3% Kollidon 12 PF-TBA and 3% Kollidon 17 PF-TBA, room temperature overnight): stable
solubility ([3]; 3% Kollidon 17 PF-TBA): 4200 µg/mL (≈ 13.4 mM)
solubility ([3]; 100% TBA, ambient room temperature): 2000 µg/mL (≈ 6.37 mM)
stability in solution ([3]; 100% TBA, ambient room temperature overnight): stable
